Earlier results on six compounds are cited in US20040082521A1, “Novel formulations of digitalis glycosides for treating cell-proliferative and other diseases” (Azaya Therapeutics Inc., priority 2002, published 2004).

Series [1] has as its system various cancer cell lines.
The subject of series [2] is FGF-2 release from PC3 cells. To be noted: 0.1 ng/mL.
Series [3] has as its system androgen-independent human prostate cancer cell lines. To be noted: for apoptosis: in vitro.
Series [4] deals with FGF-2 release from DU145 cells. Particulars: 0.1 ng/mL.
Series [5] deals with human malignant cell lines. Particulars: for growth and apoptosis: non-toxic concentrations.

Structures are written as SMILES.

On to `CO[C@H]1C[C@H](O[C@H]2CC[C@@]3(C)[C@H](CC[C@@H]4[C@@H]3CC[C@]3(C)[C@@H](C5=CC(=O)OC5)[C@@H](OC(C)=O)C[C@]43O)C2)O[C@@H](C)[C@@H]1O` [Oleandrin, 16b-acetoxy-3b-[(2,6-dideoxy-3-0-methyl-a2-L-arabino-hexopyranosyl)oxy]14-hydroxy-5β, 14β-card-20(22)-enolide], for which the anti-cancer activities entry in series [1] was “significant anti-cancer activities”. Also, in the series on c-Jun NH2terminal kinase, the “TNF-induced activation of c-Jun NH2terminal kinase” value is reported as “inhibited”. In addition, the “inhibition of FGF-2 release” value in series [2] was 45.7%; in series [4] it was 49.9%. The caspase activation entry in [3] (cleavage of poly (ADP-ribose) polymerase, hydrolysis of DEVD-pNA) is on record as “promoted caspase activation”. Also, in [3], the apoptosis result is “induce apoptosis”. In the series with AP-1, the “AP-1 activation induced by TNF and other agents” value is reported as “blocked”. In the series with NF-κB (TNF-induced), the “TNF-induced activation of NF-κB” value is given as “blocked”. The “NF-κB activation induced by phorbol ester and lipopolysaccharide” value in the series with NF-κB (phorbol ester and lipopolysaccharide) is “blocked”. The “NF-κB-dependent reporter gene transcription activated by TNF” value in the series on NF-κB (reporter gene) is “suppressed”. The cell-killing potency result in the series on human cancer cells (comparison Oleandrin vs water extract) was “greater than that of the water extract”. Besides, the cell killing entry in the series with human cancer cells (human cancer cells) is recorded as “able to induce cell killing”. Besides, where the note is “in vivo”, the “elimination from the body” value is recorded as “one to two”. Under “when ingested”, the “distribution in the body” value was “widely distributed in the body”.
With `C[C@@H]1O[C@@H](O[C@H]2C[C@@H](O)[C@]3(CO)[C@H]4[C@H](O)C[C@]5(C)[C@@H](C6=CC(=O)OC6)CC[C@]5(O)[C@@H]4CC[C@]3(O)C2)[C@H](O)[C@H](O)[C@H]1O` [Ouabain, reference compound], the apoptosis result in series [3] was “induce apoptosis”.
Take `CO[C@@H]1C[C@H](O[C@H]2CC[C@@]3(C)[C@H](CC[C@@]45O[C@@]46CC[C@H](C4=CC(=O)OC4)[C@@]6(C)CC[C@H]35)C2)O[C@H](C)[C@@H]1O` [adynerin]: the anti-cancer activities result in series [1] is “significant anti-cancer activities”.
`C[C@H]1O[C@@H](O[C@H]2[C@@H](O)C[C@H](O[C@H]3[C@@H](O)C[C@H](O[C@H]4CC[C@@]5(C)[C@H](CC[C@@H]6[C@@H]5CC[C@]5(C)[C@@H](C7=CC(=O)OC7)CC[C@]65O)C4)O[C@@H]3C)O[C@@H]2C)C[C@H](O)[C@@H]1O` [digitoxin]: the apoptosis-inducing effect entry in series [5] (in vitro, digitoxin vs digoxin) was “more potent for digitoxin than for digoxin”. Besides, in [5], the growth and apoptosis entry was “inhibits growth and induce apoptosis”.
As to `C[C@H]1O[C@@H](O[C@H]2[C@@H](O)C[C@H](O[C@H]3[C@@H](O)C[C@H](O[C@H]4CC[C@@]5(C)[C@H](CC[C@@H]6[C@@H]5C[C@@H](O)[C@]5(C)[C@@H](C7=CC(=O)OC7)CC[C@]65O)C4)O[C@@H]3C)O[C@@H]2C)C[C@H](O)[C@@H]1O` [digoxin, reference compound], in series [3], the apoptosis entry is on record as “induce apoptosis”. The growth and apoptosis result in [5] was “inhibits growth and induce apoptosis”.
`C[C@H]1[C@H](C)CC[C@]2(C(=O)O)CC[C@]3(C)C(=CC[C@@H]4[C@@]5(C)CC[C@H](O)C(C)(C)[C@@H]5CC[C@]43C)[C@H]12` [ursolic acid]: the anti-cancer activities entry in series [1] is recorded as “significant anti-cancer activities”.
